Test results reported in ChEMBL document CHEMBL4428075, “New antiproliferative 7-(4-(N-substituted carbamoylmethyl)piperazin-1-yl) derivatives of ciprofloxacin induce cell cycle arrest at G2/M phase” (Bioorg Med Chem, 2016).

Experiments:
NCI/ADR-RES = test: Antiproliferative activity against human NCI-ADR-RES cells at 10^-5 M after 48 hrs by SRB assay; format: functional; conditions: read-out: GI
SNB-75 = test: Antiproliferative activity against human SNB75 cells at 10^-5 M after 48 hrs by SRB assay; format: functional; conditions: SNB-75, 48 h, read-out: GI
UO-31 = test: Antiproliferative activity against human UO31 cells at 10^-5 M after 48 hrs by SRB assay; format: functional; conditions: UO-31, 48 h, read-out: GI
Hs-578T = test: Antiproliferative activity against human Hs 578T cells at 10^-5 M after 48 hrs by SRB assay; format: functional; conditions: read-out: GI
NCI-H522 = test: Antiproliferative activity against human NCI-H522 cells at 10^-5 M after 48 hrs by SRB assay; format: functional; conditions: NCI-H522, 48 h, read-out: GI
A549 [1] = test: Antiproliferative activity against human A549 cells at 10^-5 M after 48 hrs by SRB assay; format: functional; conditions: A549, 48 h, read-out: GI
SF-539 = test: Antiproliferative activity against human SF539 cells at 10^-5 M after 48 hrs by SRB assay; format: functional; conditions: SF-539, 48 h, read-out: GI
NCI-H23 = test: Antiproliferative activity against human NCI-H23 cells at 10^-5 M after 48 hrs by SRB assay; format: functional; conditions: NCI-H23, 48 h, read-out: GI
PC-3 = test: Antiproliferative activity against human PC3 cells at 10^-5 M after 48 hrs by SRB assay; format: functional; conditions: PC-3, 48 h, read-out: GI
EKVX = test: Antiproliferative activity against human EKVX cells at 10^-5 M after 48 hrs by SRB assay; format: functional; conditions: read-out: GI
M14 = test: Antiproliferative activity against human M14 cells at 10^-5 M after 48 hrs by SRB assay; format: functional; conditions: M14, 48 h, read-out: GI
ACHN = test: Antiproliferative activity against human ACHN cells at 10^-5 M after 48 hrs by SRB assay; format: functional; conditions: read-out: GI
NCI-H226 = test: Antiproliferative activity against human NCI-H226 cells at 10^-5 M after 48 hrs by SRB assay; format: functional; conditions: NCI-H226, 48 h, read-out: GI
SW-620 = test: Antiproliferative activity against human SW620 cells at 10^-5 M after 48 hrs by SRB assay; format: functional; conditions: SW-620, 48 h, read-out: GI
U-251 = test: Antiproliferative activity against human U251 cells at 10^-5 M after 48 hrs by SRB assay; format: functional; conditions: U-251, 48 h, read-out: GI
CCRF-CEM = test: Antiproliferative activity against human CCRF-CEM cells at 10^-5 M after 48 hrs by SRB assay; format: functional; conditions: read-out: GI
MOLT-4 = test: Antiproliferative activity against human MOLT4 cells at 10^-5 M after 48 hrs by SRB assay; format: functional; conditions: MOLT-4, 48 h, read-out: GI
HCT-116 = test: Antiproliferative activity against human HCT116 cells at 10^-5 M after 48 hrs by SRB assay; format: functional; conditions: HCT-116, 48 h, read-out: GI
MDA-MB-231 = test: Antiproliferative activity against human MDA-MB-231 cells at 10^-5 M after 48 hrs by SRB assay; format: functional; conditions: MDA-MB-231, 48 h, read-out: GI
NCI-H322M = test: Antiproliferative activity against human NCI-H322M cells at 10^-5 M after 48 hrs by SRB assay; format: functional; conditions: read-out: GI
T47D = test: Antiproliferative activity against human T47D cells at 10^-5 M after 48 hrs by SRB assay; format: functional; conditions: read-out: GI
SK-MEL-28 = test: Antiproliferative activity against human SK-MEL-28 cells at 10^-5 M after 48 hrs by SRB assay; format: functional; conditions: SK-MEL-28, 48 h, read-out: GI
A549 [2] = test: Induction of cell cycle arrest in human A549 cells assessed as accumulation at G1 phase at 5 uM after 24 hrs by FITC-labeled anti-BrdU antibody/7AAD staining based FACS calibur flow cytometric analysis (reference value: 65.9 %); format: functional
A549 [3] = test: Upregulation of p21 expression in human A549 cells after 24 hrs by Western blot analysis; format: functional, cell-based
WI-38 [4] = test: Downregulation of cyclinB1 expression in human WI38 cells at 5 to 25 uM after 24 hrs by Western blot analysis; format: ADME, cell-based; conditions: wi-38, 24 h
A549 [5] = test: Induction of cell cycle arrest in human A549 cells assessed as accumulation at S phase at 25 uM after 24 hrs by FITC-labeled anti-BrdU antibody/7AAD staining based FACS calibur flow cytometric analysis (reference value: 20.9 %); format: functional
A549 [6] = test: Induction of cell cycle arrest in human A549 cells assessed accumulation at G2/M phase at 25 uM after 24 hrs in presence of PFTalpha by FITC-labeled anti-BrdU antibody/7AAD staining based FACS calibur flow cytometric analysis (reference value: 63.9%); format: functional
WI-38 [7] = test: Downregulation of cdc2 expression in human WI38 cells at 5 to 25 uM after 24 hrs by Western blot analysis; format: ADME, cell-based; conditions: wi-38, 24 h
TK-10 = test: Antiproliferative activity against human TK10 cells at 10^-5 M after 48 hrs by SRB assay; format: functional; conditions: TK-10, 48 h, read-out: GI
A549 [8] = test: Induction of cell cycle arrest in human A549 cells assessed accumulation at G2/M phase at 25 uM after 24 hrs by FITC-labeled anti-BrdU antibody/7AAD staining based FACS calibur flow cytometric analysis (reference value: 12%); format: functional
A549 [9] = test: Induction of cell cycle arrest in human A549 cells assessed as accumulation at S phase at 15 uM after 24 hrs by FITC-labeled anti-BrdU antibody/7AAD staining based FACS calibur flow cytometric analysis (reference value: 20.9 %); format: functional
A549 [10] = test: Induction of cell cycle arrest in human A549 cells assessed as accumulation at S phase at 10 uM after 24 hrs by FITC-labeled anti-BrdU antibody/7AAD staining based FACS calibur flow cytometric analysis (reference value: 20.9 %); format: functional
A549 [11] = test: Induction of cell cycle arrest in human A549 cells assessed as accumulation at sub G1 phase at 5 uM after 24 hrs by FITC-labeled anti-BrdU antibody/7AAD staining based FACS calibur flow cytometric analysis (reference value: 0.82 %); format: functional
A549 [12] = test: Induction of cell cycle arrest in human A549 cells assessed as accumulation at G2/M phase at 15 uM after 24 hrs by FITC-labeled anti-BrdU antibody/7AAD staining based FACS calibur flow cytometric analysis (reference value: 12.61 %); format: functional
A549 [13] = test: Induction of cell cycle arrest in human A549 cells assessed as accumulation at sub G1 phase at 10 uM after 24 hrs by FITC-labeled anti-BrdU antibody/7AAD staining based FACS calibur flow cytometric analysis (reference value: 0.82 %); format: functional
A549 [14] = test: Induction of cell cycle arrest in human A549 cells assessed as accumulation at sub G1 phase at 15 uM after 24 hrs by FITC-labeled anti-BrdU antibody/7AAD staining based FACS calibur flow cytometric analysis (reference value: 0.82 %); format: functional

| Compound | inhibition of growth at 10 µM (NCI/ADR-RES) | inhibition of growth at 10 µM (SNB-75) | inhibition of growth at 10 µM (UO-31) | inhibition of growth at 10 µM (Hs-578T) | inhibition of growth at 10 µM (NCI-H522) | inhibition of growth at 10 µM (A549 [1]) | inhibition of growth at 10 µM (SF-539) | inhibition of growth at 10 µM (NCI-H23) | inhibition of growth at 10 µM (PC-3) | inhibition of growth at 10 µM (EKVX) | inhibition of growth at 10 µM (M14) | inhibition of growth at 10 µM (ACHN) | inhibition of growth at 10 µM (NCI-H226) | inhibition of growth at 10 µM (SW-620) | inhibition of growth at 10 µM (U-251) | inhibition of growth at 10 µM (CCRF-CEM) | inhibition of growth at 10 µM (MOLT-4) | inhibition of growth at 10 µM (HCT-116) | inhibition of growth at 10 µM (MDA-MB-231) | inhibition of growth at 10 µM (NCI-H322M) | also measured |
| --- | --- | --- | --- | --- | --- | --- | --- | --- | --- | --- | --- | --- | --- | --- | --- | --- | --- | --- | --- | --- | --- |
| COc1ccc(NC(=O)CN2CCN(c3cc4c(cc3F)c(=O)c(C(=O)O)cn4C3CC3)CC2)cc1 | 0% | 12% | 17.8% | 5.32% | 12.9% | 7.18% | 5.31% | 7.04% | 11.6% | 0% | 8.75% | 0% | 16.8% | 0% | 5.8% | 0% | 0% | 9.38% | 13.8% | 26.4% | inhibition of growth at 10 µM (T47D): 24.5%; inhibition of growth at 10 µM (SK-MEL-28): 2.72% |
| O=C(CN1CCN(c2cc3c(cc2F)c(=O)c(C(=O)O)cn3C2CC2)CC1)Nc1ccc(Cl)cc1 | 0% | 20.3% | 92.8% | 12.3% | 114% | 30.8% | 13.1% | 5.51% | 19.9% | 6.62% | 18.2% | 46.8% | 19.9% | 0% | 55.8% | 23.6% | 3.53% | 26.9% | 39.8% | 47.2% | Activity (A549 [2]): 68.9%; Activity (A549 [3]): Dose-dependent effect; Activity (WI-38 [4]): Non-Toxic; Activity (A549 [5]): 10.5%; Activity (A549 [6]): 23.7%; Activity (WI-38 [7]): Non-Toxic; inhibition of growth at 10 µM (TK-10): 13.9%; Activity (A549 [8]): 63.9%; Activity (A549 [9]): 19.8%; Activity (A549 [10]): 16.7%; Activity (A549 [11]): 1.65%; Activity (A549 [12]): 32.6%; Activity (A549 [13]): 4.19%; Activity (A549 [14]): 3.28%; inhibition of growth at 10 µM (T47D): 40.9%; inhibition of growth at 10 µM (SK-MEL-28): 12.9% |
| COc1cc(NC(=O)CN2CCN(c3cc4c(cc3F)c(=O)c(C(=O)O)cn4C3CC3)CC2)cc(OC)c1OC | 0% | 0% | 0% | 4.61% | 24.4% | 0% | 0% | 0% | 14.5% | 0% | 0% | 0% | 0% | 0% | 0% | 23.2% | 0% | 0% | 0% | 0% | inhibition of growth at 10 µM (TK-10): 10.5%; inhibition of growth at 10 µM (T47D): 9.38%; inhibition of growth at 10 µM (SK-MEL-28): 0% |
